Data on two compounds can be found in patent US20240165077A1, “COMPOSITIONS AND METHODS FOR TREATING NEUROLOGIC DISEASES” (Cognition Therapeutics, Inc., priority 2021, published 2024).

Assay [1] has as its system α-synuclein oligomers (α-synO) binding to neuronal synapses. Kind of assay: Displacement of alpha-synuclein oligomers: α-synO binding to neuronal synapses (ASYO5 immunostaining). To be noted: 24 hours; for α-synO binding to neuronal synapses: synthetic α-synO, FIG. 1D/1E. The format is cell-based, Rat. The protocol:
FIG. 1A is a representative image of a neuron culture with a seeding control (7.1 nM) treated with a vehicle for 24 hours. Cultures were immunostained for the neurite marker microtubule associated protein 2 (MAP2; green) and for α-synuclein oligomers using an alpha-synuclein, oligomer-specific antibody (ASYO5 antibody, Agrisera; red). No α-synOs are present in the vehicle treated cultures.
FIG. 1B is a representative image of a neuron culture treated with synthetic α-synuclein oligomers (1 μM) for 24 hours and immunostained for the neurite marker microtubule associated protein 2 (MAP2; green) and for α-synuclein oligomers using an alpha-synuclein, oligomer-specific antibody (ASYO5 antibody, Agrisera; red).
FIG. 1C is a representative image of a neuron culture treated with synthetic α-synuclein oligomers (1 μM) and Compound A:
(10 μM) for 24 hours and immunostained for the neurite marker microtubule associated protein 2 (MAP2; green) and for α-synuclein oligomers using an alpha-synuclein, oligomer-specific antibody (ASYO5 antibody, Agrisera; red).
FIG. 1D is a graphical representation of binding affinity of α-synuclein oligomers (α-SynO) to neuronal synapses after treatment with vehicle (α-SynO) or treatment with Compound B
FIG. 1E is a graphical representation of binding affinity of α-synuclein oligomers (α-SynO) to neuronal synapses after treatment with vehicle (α-SynO) or treatment with Compound A
(§1) Rat neuronal cultures were treated with vehicle (an a seeding control (7.1 nM) without α-synuclein oligomers (α-synOs)) or synthetic α-synOs for 24 hours. Cultures were immunostained for the neurite marker microtubule associated protein 2 (MAP2; green) and for α-synOs using an alpha-synuclein, oligomer-specific antibody (ASYO5 antibody, Agrisera; red).

The test system of assay [2] is α-synO-induced vesicle trafficking deficits. Kind of assay: Vesicle trafficking in neuronal cultures treated with α-synuclein oligomers. The assay is classed as cell-based, Rat. To be noted: α-synOs 1.0 μM final concentration; for Emax / EC50: Rattus norvegicus; for Emax: FIG. 1F/1G, read-out: Emax, amelioration of α-synO vesicle trafficking deficit; for EC50: read-out: EC50, amelioration of α-synO vesicle trafficking deficit. Here is the method: FIG. 1F is a graphical representation of vesicular trafficking in untreated control cultures, cultures treated with α-synuclein oligomers (α-SynO) for 24 hours, or cultures treated with α-synuclein oligomers (α-SynO) and Compound B
FIG. 1G is a graphical representation of vesicular trafficking in untreated control cultures, cultures treated with α-synuclein oligomers (α-SynO) for 24 hours, or cultures treated with α-synuclein oligomers (α-SynO) and Compound A
as §1
Untreated vehicle control cultures without any α-SynO addition lack α-synO immunoreactivity (FIG. 1A). […] FIGS. 1D, 1E, 1F, 1G: * p<0.05, **p<0.01, […], ****p<0.001, one-way ANOVA for drug concentration vs control with Dunnett's post-test.

In a further assay the test system is α-synuclein. Kind of assay: Animal models of Parkinson's disease (AAV1/2 A53T-α-synuclein overexpression; intrastriatal α-synuclein preformed fibrils). The format is in vivo, rat. The following applies: both models of Parkinson's disease. The source says: Examples include models of overexpression of α-synuclein or models that mimic the propagation of α-synuclein throughout the brain. One such overexpression model is the rat AAV1/2 A53T-α-synuclein model (Koprich, J. B., Johnston, T. H., Huot, P., Reyes, M. G., Espinosa, M., Brotchie, J. M., “Progressive neurodegeneration or endogenous compensation in an animal model of Parkinson's disease produced by decreasing doses of alpha-synuclein,” PLoS One, 6:1-9 (2011), which is hereby incorporated herein by reference in its entirety), where induction of α-synuclein overexpression is accompanied by loss of nigral dopaminergic cells, lower dopamine transporter levels, lower dopamine levels and motor deficits. Another example uses intrastriatal injection of preformed fibrils of α-synuclein to model propagation of Parkinson's pathology throughout the brain (Duffy, M. F., Collier, T. J., Patterson, J. R., Kemp, C. J., Fischer D. L., Stoll, A. C., Sortwell, C. E., “Quality over quantity: Advantages of using alpha-synuclein preformed fibrils triggered synucleinopathy to model idiopathic Parkinson's disease,” Front Neurosci, 12:1-10 (2018) and Patterson, J. R., Duffy, M. F., Kemp, C. J., Howe, J. W., Collier, T. J., Stoll, A. C., Miller, K. M., Patel, P., Levine, N., Moore, D. J., Luk, K. C., Fleming, S. M., Kanaan, N. M, Paumier, K. L., El Agnaf, O. M. A., Sortwell, C. […]

Like-named read-outs stand apart in the source and are kept apart here.

Regarding `CC(C)=C[C@@H](CC(C)(C)c1ccc(C(F)(F)F)cc1)N1CCC(C2CCOCC2)CC1` [Compound B], the “α-synO binding to neuronal synapses” value in assay [1] is “block α-synO binding to neuronal synapses in a concentration-dependent manner”. In assay [2], the Emax is 92% and the “rescue of α-synO-induced trafficking deficits” value is listed as “rescue α-synO-induced trafficking deficits in a concentration-dependent manner”. Further, the EC50 in assay [2] (FIG. 1F) turned out to be 310 nM. Further, in the assay on α-synuclein, the “deficits characteristic of Parkinson's disease and their propagation throughout the brain” value was “reduces some or all deficits that are characteristic of Parkinson's disease”.
With `CC(C)(C)Oc1cc(CCC(C)(C)N2Cc3ccc(S(C)(=O)=O)cc3C2)ccc1O` [Compound A], the “punctate binding of α-synOs along neurites” value in assay [1] (1 μM α-synO, compound 10 μM, FIG. 1B/1C) is on record as “punctate binding of α-synOs along neurites in the absence (FIG. 1B) but not presence”. In assay [1], the “α-synO binding to neuronal synapses” value is on record as “block α-synO binding to neuronal synapses in a concentration-dependent manner”. Also, in assay [2], the Emax stood at 87% and the “rescue of α-synO-induced trafficking deficits” value is listed as “rescue α-synO-induced trafficking deficits in a concentration-dependent manner”. Also, in assay [2] (FIG. 1G), the EC50 is 650 nM. Further, the “deficits characteristic of Parkinson's disease and their propagation throughout the brain” value with α-synuclein is “reduces some or all deficits that are characteristic of Parkinson's disease”.
